Results taken from ChEMBL document CHEMBL1201862, “PubChem BioAssay data set” (2004).
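Interpolation was linear, between the two tested concentrations surrounding the appropriate level; five concentrations were tested over 48 hours in 96-well plates. GI50 is the concentration that inhibits growth by half.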 The source made the active and inactive calls. No stated cut-off is given here; in the data, active = GI50 up to about 1.1 µM and inactive = higher.

Columns and labels:
Assay in all cases: inhibition of tumour cell growth, NCI panel, 48 h
K562 = system: K562
PC-3 = system: PC-3
A498 = system: A498
HCT-116 = system: HCT-116
CCRF-CEM = system: CCRF-CEM
Malme-3M = system: Malme-3M
SK-MEL-28 = system: SK-MEL-28
SF-539 = system: SF-539
SK-OV-3 = system: SK-OV-3
T47D = system: T47D
HOP-62 = system: HOP-62
HL-60 = system: HL-60
MCF7 = system: MCF7
A549 = system: A549
NCI-H460 = system: NCI-H460
SNB-75 = system: SNB-75
OVCAR-5 = system: OVCAR-5
LOX IMVI = system: LOX IMVI
MOLT-4 = system: MOLT-4
IGROV-1 = system: IGROV-1
TK-10 = system: TK-10
NCI-H226 = system: NCI-H226
KM12 = system: KM12
MDA-MB-435 = system: MDA-MB-435
OVCAR-3 = system: OVCAR-3
UACC-257 = system: UACC-257
ACHN = system: ACHN
SR = system: SR
SN12C = system: SN12C
UO-31 = system: UO-31
BT-549 = system: BT-549
HOP-92 = system: HOP-92
UACC-62 = system: UACC-62
SK-MEL-2 = system: SK-MEL-2
786-0 = system: 786-0
Hs-578T = system: Hs-578T
SW-620 = system: SW-620
SK-MEL-5 = system: SK-MEL-5
RXF 393 = system: RXF 393
M14 = system: M14
HCC 2998 = system: HCC 2998
HT-29 = system: HT-29
SF-295 = system: SF-295
EKVX = system: EKVX
SNB-19 = system: SNB-19
MDA-N = system: MDA-N
U-251 = system: U-251
NCI-H23 = system: NCI-H23
HCT-15 = system: HCT-15
OVCAR-8 = system: OVCAR-8
MDA-MB-231 = system: MDA-MB-231
SF-268 = system: SF-268
DU-145 = system: DU-145
NCI/ADR-RES = system: NCI/ADR-RES
COLO 205 = system: COLO 205
CAKI-1 = system: CAKI-1
NCI-H522 = system: NCI-H522
OVCAR-4 = system: OVCAR-4
RPMI-8226 = system: RPMI-8226

Measured: GI50

CC(C)CC(C#CCCOC(=O)c1ccccc1)OC(=O)c1ccccc1 (stereo unspecified)
active: SNB-75 0.445 µM
inactive: K562 > 10 µM | PC-3 > 10 µM | A498 > 10 µM | HCT-116 > 10 µM | CCRF-CEM > 10 µM | Malme-3M > 10 µM | SK-MEL-28 > 10 µM | SF-539 > 10 µM | SK-OV-3 > 10 µM | T47D > 10 µM | HOP-62 > 10 µM | HL-60 > 10 µM | MCF7 > 10 µM | A549 > 10 µM | NCI-H460 > 10 µM | OVCAR-5 > 10 µM | LOX IMVI > 10 µM | MOLT-4 > 10 µM | IGROV-1 > 10 µM | TK-10 > 10 µM | NCI-H226 > 10 µM | KM12 > 10 µM | MDA-MB-435 > 10 µM | OVCAR-3 > 10 µM | UACC-257 > 10 µM | ACHN > 10 µM | SR > 10 µM | SN12C > 10 µM | UO-31 > 10 µM | BT-549 > 10 µM | HOP-92 > 10 µM | UACC-62 > 10 µM | SK-MEL-2 > 10 µM | 786-0 > 10 µM | Hs-578T > 10 µM | SW-620 > 10 µM | SK-MEL-5 > 10 µM | RXF 393 > 10 µM | M14 > 10 µM | HCC 2998 > 10 µM | HT-29 > 10 µM | SF-295 > 10 µM | EKVX > 10 µM | SNB-19 > 10 µM | MDA-N > 10 µM | U-251 > 10 µM | NCI-H23 > 10 µM | OVCAR-8 > 10 µM | MDA-MB-231 > 10 µM | SF-268 > 10 µM | DU-145 > 10 µM
> 10 µM: HCT-15

O=[N+]([O-])c1ccc2c(c1)nc(Cc1ccccc1)n2C[C@@H]1CCCN2CCCCC12 (stereo partly specified)
36.9 µM: HCT-15
active: HL-60 < 0.01 µM
inactive: K562 18.7 µM | PC-3 37.3 µM | A498 13.4 µM | HCT-116 33.7 µM | CCRF-CEM 17.6 µM | Malme-3M 14.2 µM | SK-MEL-28 18.6 µM | SK-OV-3 34.4 µM | T47D 39.4 µM | HOP-62 > 100 µM | MCF7 41.1 µM | NCI/ADR-RES 22.9 µM | COLO 205 17.3 µM | A549 51.2 µM | NCI-H460 41.4 µM | SNB-75 63.5 µM | OVCAR-5 28.5 µM | LOX IMVI 20.4 µM | MOLT-4 17.4 µM | IGROV-1 25.8 µM | TK-10 37.5 µM | NCI-H226 89.9 µM | KM12 21.3 µM | MDA-MB-435 17.2 µM | OVCAR-3 41.5 µM | UACC-257 15.8 µM | ACHN 57.8 µM | CAKI-1 28.3 µM | SN12C 48 µM | UO-31 6.49 µM | BT-549 26.7 µM | HOP-92 3.71 µM | UACC-62 19.5 µM | NCI-H522 21.6 µM | SK-MEL-2 20.9 µM | 786-0 22.3 µM | Hs-578T 38.5 µM | SW-620 40.4 µM | SK-MEL-5 16.5 µM | RXF 393 19.4 µM | M14 18.2 µM | HCC 2998 12.9 µM | HT-29 17.5 µM | SF-295 18 µM | EKVX 17.1 µM | SNB-19 56.4 µM | MDA-N 20.6 µM | U-251 44.7 µM | NCI-H23 27.5 µM | OVCAR-8 34.9 µM | MDA-MB-231 31.3 µM | OVCAR-4 27.4 µM | SF-268 45.8 µM | DU-145 60.5 µM

[N-]=[N+]=Nc1cc(=O)[nH]c2ccccc12
inactive: K562 > 100 µM | PC-3 39.4 µM | RPMI-8226 81.8 µM | HCT-116 > 100 µM | CCRF-CEM > 100 µM | Malme-3M 94.6 µM | SK-MEL-28 > 100 µM | SF-539 > 100 µM | SK-OV-3 85.3 µM | T47D 64.9 µM | HOP-62 > 100 µM | MCF7 52 µM | NCI/ADR-RES > 100 µM | COLO 205 > 100 µM | A549 > 100 µM | SNB-75 32.3 µM | OVCAR-5 > 100 µM | MOLT-4 92.5 µM | IGROV-1 31.9 µM | TK-10 53 µM | NCI-H226 45.9 µM | KM12 > 100 µM | MDA-MB-435 > 100 µM | OVCAR-3 65.2 µM | UACC-257 > 100 µM | ACHN > 100 µM | SR 41.3 µM | CAKI-1 > 100 µM | SN12C > 100 µM | UO-31 31.4 µM | BT-549 83.2 µM | HOP-92 85.3 µM | UACC-62 44.2 µM | NCI-H522 > 100 µM | SK-MEL-2 > 100 µM | 786-0 > 100 µM | Hs-578T 44.3 µM | SW-620 > 100 µM | SK-MEL-5 > 100 µM | RXF 393 > 100 µM | M14 > 100 µM | HT-29 > 100 µM | SF-295 > 100 µM | EKVX 4.98 µM | SNB-19 > 100 µM | MDA-N > 100 µM | U-251 > 100 µM | NCI-H23 > 100 µM | OVCAR-8 > 100 µM | MDA-MB-231 > 100 µM | OVCAR-4 > 100 µM | SF-268 > 100 µM
